{"source": "patent US10556927B2", "about": "(priority 2014, dated 2020)", "system": "HVA calcium channel currents in DRG neuronal cells", "format": "cell-based, rat"}
{"smiles": "COC(=O)C1=C(C)NC(C)=C(C(=O)OC)C1c1ccccc1[N+](=O)[O-]", "note": "[Nifedipine]", "values": [{"measurement": "current after loading", "value": "−734.31", "unit": "pA"}, {"measurement": "current before loading", "value": "−1471.35", "unit": "pA"}, {"measurement": "inhibition rate", "setting": "10 µM", "value": 50.09, "unit": "%"}]}
